Measured values taken from patent publication US4160097A, “1-(2-Phenylureylene)imidazoles” (Westwind Pharmaceuticals, Inc., priority 1977, dated 1979).
Converted amounts (≈) assume the structure as drawn.

Columns and labels:
[1] = tested on: carrageenan rat paw edema; test: Rat Paw Edema Assay, Oral Dosing; format: in vivo; settings: 4 h, four hours after drug, read-out: % Difference from Control; for change in vivo at 100 mg/kg: 100 mg/kg oral; for change in vivo at 400 mg/kg: 400 mg/kg oral
Experimental: The anti-inflammatory activity of representative compounds of this invention was determined by the rat paw edema assay both by local administration (Table XI below) and by oral dosing (Table XII below). For the oral dosing, the procedure of C. A. Winter, E. A. Risley and G. W. Nuss, Proc. Soc. Exp. Biol. Med. III, 544 (1962) was employed with measurement taken four hours after the drug was administered. The local administration tests were carried out similarly except the irritant (carrageenan) and the test compound were injected simultaneously at time zero.
Tables XI and XII report the anti-inflammatory activity of the compounds tested as % difference in the edema or swelling as compared with the control. These Tables also give the response in many instances of more than one dose level of the same drug.

[2] = tested on: humeral or antibody response; test: hemolysin test in mice; format: in vivo; settings: Mus musculus, sc, dose reducing antibody activity by 50% vs control, read-out: HL(ED50)
[3] = tested on: cell-mediated immune response to the antigen, Mycobacterium tuberculosis H37Ra; test: delayed hypersensitivity test; format: in vivo, mouse; settings: mice, dose reducing edema of cell-mediated immune response by 60% vs control; for ED60: Mus musculus, sc, read-out: D.H.S. (ED60)
Experimental: The immunosuppressant activities of the compounds of this invention were determined via the hemolysin test in mice and by the delayed hypersensitivity test. The hemolysin test used is that described in Methods in Immunology, edited by D. H. Campbell et al, W. A. Benjamin, New York 1963 pages 172-175, and measures humeral or antibody response. The delayed hypersensitivity test measures the effect of a test compound on the ability of a subject mouse to mount a cell-mediated immune response to the antigen, Mycobacterium tuberculosis H37Ra. The mouse is sensitized to the antigen by subcutaneous administration in the base of the tail. The development of the delayed hypersensitivity response may be measured at any time beginning six days after sensitization but is usually done on the ninth day as follows: The right hind paw is injected with purified protein derivative (tuberculin) while the left hind paw (control) receives physiological saline. Both paw volumes are measured after twenty-four hours and significant increase in the volume of the right hand paw is taken as a measure of an effective delayed hypersensitivity response. All compounds were administered by the subcutaneous route.
The D.H.S. (ED60) mg./kg. s.c. value appearing in column 3 is an expression of the effectiveness of the drug in reducing the edema that accompanies the cell-mediated immune response. It is a measure of the number of milligrams per kilogram of body weight of the drug administered subcutaneously which is required to reduce the edema of the cell-mediated immune response by 60% when compared to the control.

Trichophyton rubrum = test: Antifungal activity, agar dilution method; format: cell-based, Trichophyton rubrum (ATCC No. 10218 and 14001); settings: T. rubrum, read-out: Parts Per Million Inhibitions of T. rubrum
Experimental: (§1) various compounds of this invention display antifungal and anti-yeast activity.
(§2) In Table IX below are listed the antifungal activity of a number of compounds encompassed in the present invention. These were determined by the agar dilution method as described in Chapters 2 and 3 of Methods in Microbiology, Vol. 7B, edited by J. R. Norris and D. W. Ribbons, Academic Press, New York, 1972.

[4] = tested on: Trichophyton mentagrophytes; test: Antifungal activity, agar dilution method; format: cell-based, Trichophyton mentagrophytes (ATCC No. 8757 and 9129); settings: T. mentagrophytes, read-out: Parts Per Million Inhibitions of T. mentagrophytes
Experimental: as §1, §2

Row | SMILES | change in vivo at 100 mg/kg [1] [%] | ED50 [2] [mg/kg] | ED60 [3] [mg/kg] | also measured
1 | CC(=O)Oc1ccccc1C(=O)O [Aspirin, reference compound] | -57 |  |  | 
2 | CC(=O)Nc1ccccc1-n1ccnc1 [Compound 2] | -26 |  |  | change in vivo at 400 mg/kg [1]: 43%
3 | CCC(=O)Nc1ccccc1-n1ccnc1 [Compound 3] |  | 50 | 50 | D.H.S. (ED60) ([3]; s.c.): 50.0 mg/kg
4 | CC(C)CC(=O)Nc1ccccc1-n1ccnc1 [Compound 14] | -52 |  |  | 
5 | CCCCC(CC)C(=O)Nc1ccccc1-n1ccnc1 (centres unmarked) [Compound 15] | -24 |  |  | change in vivo at 400 mg/kg [1]: -5%
6 | O=C(Cc1ccccc1)Nc1ccccc1-n1ccnc1 [Compound 18] | -28 |  |  | 
7 | O=C(Nc1ccccc1-n1ccnc1)C1CC1 [Compound 23] | -46 |  |  | 
8 | O=C(Nc1ccccc1-n1ccnc1)C1CCC1 [Compound 24] | -17 |  |  | change in vivo at 400 mg/kg [1]: -25%
9 | O=C(Nc1ccccc1-n1ccnc1)C1CCCCC1 [Compound 25] | -30 |  |  | 
10 | O=C(Nc1ccccc1-n1ccnc1)C(Cl)Cl [Compound 29] | -24 |  |  | change in vivo at 400 mg/kg [1]: -25%
11 | O=C(Nc1ccccc1-n1ccnc1)C(F)(F)F [Compound 30] | 9 |  |  | change in vivo at 400 mg/kg [1]: -33%
12 | Cc1cccc(C(=O)Nc2ccccc2-n2ccnc2)c1 [Compound 36] | -7 |  |  | change in vivo at 400 mg/kg [1]: -68%
13 | Cc1ccc(C(=O)Nc2ccccc2-n2ccnc2)cc1 [Compound 37] | -35 |  |  | 
14 | O=C(Nc1ccccc1-n1ccnc1)c1cccc(C(F)(F)F)c1 [Compound 38] | -41 |  |  | 
15 | O=C(Nc1ccccc1-n1ccnc1)c1cccc([N+](=O)[O-])c1 [Compound 42] | -9 |  |  | change in vivo at 400 mg/kg [1]: -25%
16 | O=C(Nc1ccccc1-n1ccnc1)c1ccc(F)cc1 [Compound 45] | -33 |  |  | 
17 | O=C(Nc1ccccc1-n1ccnc1)c1cccc(Cl)c1 [Compound 50] | -20 |  |  | change in vivo at 400 mg/kg [1]: -33%
18 | O=C(Nc1ccccc1-n1ccnc1)c1ccc(Cl)cc1Cl [Compound 52] | -26 |  |  | 
19 | COc1ccc(C(=O)Nc2ccccc2-n2ccnc2)cc1 [Compound 55] | -26 |  |  | 
20 | COc1cc(OC)cc(C(=O)Nc2ccccc2-n2ccnc2)c1 [Compound 57] | -35 |  |  | 
21 | O=C(Nc1ccccc1-n1ccnc1)c1cccc(Br)c1 [Compound 59] |  |  |  | MIC (Trichophyton rubrum): 100 µg/mL (≈ 292 µM)

Row | SMILES | change in vivo at 100 mg/kg [1] [%] | ED50 [2] [mg/kg] | ED60 [3] [mg/kg] | also measured
22 | CCCNC(=O)Nc1ccccc1-n1ccnc1 [Compound 66] |  | 46 | > 50 | 
23 | O=C(Nc1ccccc1-n1ccnc1)NC1CCCCC1 [Compound 68] | -26 |  |  | 
24 | Cc1ccc(NC(=O)Nc2ccccc2-n2ccnc2)cc1 [Compound 71] | -22 |  |  | 
25 | O=C(Nc1cccc(F)c1)Nc1ccccc1-n1ccnc1 [Compound 73] | -22 |  |  | 
26 | O=C(Nc1ccc(Cl)cc1)Nc1ccccc1-n1ccnc1 [Compound 75] | -30 |  |  | 
27 | CCc1nc2ccccc2n2ccnc12 [Compound 111] | -43 |  |  | 
28 | CCCCCCc1nc2ccccc2n2ccnc12 [Compound 115] | 70 |  |  | change in vivo at 400 mg/kg [1]: -25%
29 | CCCCCCCCc1nc2ccccc2n2ccnc12 [Compound 117] | -7 | > 50 | 46 | change in vivo at 400 mg/kg [1]: -18%
30 | CCCCCCCCCCCCCCCc1nc2ccccc2n2ccnc12 [Compound 119] |  |  |  | MIC (Trichophyton rubrum): 8 µg/mL (≈ 21.1 µM)
31 | CCCCCCCCCCCCCCCCCc1nc2ccccc2n2ccnc12 [Compound 120] |  |  |  | MIC (Trichophyton rubrum): 1 µg/mL (≈ 2.45 µM)
32 | CC(C)Cc1nc2ccccc2n2ccnc12 [Compound 121] | -61 |  |  | 
33 | C=CCCCCCCCCc1nc2ccccc2n2ccnc12 [Compound 123] | 0 |  |  | MIC (Trichophyton rubrum): 2 µg/mL (≈ 6.51 µM); change in vivo at 400 mg/kg [1]: -50%
34 | c1ccc2c(c1)nc(C1CCC1)c1nccn12 [Compound 128] | -39 |  |  | MIC (Trichophyton rubrum): 16 µg/mL (≈ 71.7 µM)
35 | FC(F)(F)c1cccc(-c2nc3ccccc3n3ccnc23)c1 [Compound 136] | -9 | 2.7 | > 50 | MIC [4]: 100 µg/mL (≈ 319 µM); change in vivo at 400 mg/kg [1]: -25%
36 | COc1cc(OC)cc(-c2nc3ccccc3n3ccnc23)c1 [Compound 139] | -22 | 3 | > 50 | MIC [4]: 100 µg/mL (≈ 328 µM); change in vivo at 400 mg/kg [1]: -25%
37 | Clc1cccc(-c2nc3ccccc3n3ccnc23)c1 [Compound 142] |  | 0.2 | 4.2 | MIC [4]: 100 µg/mL (≈ 357 µM)
38 | Clc1ccc(-c2nc3ccccc3n3ccnc23)cc1Cl [Compound 143] |  | 0.36 | 1.3 | 
39 | Clc1ccc(-c2nc3ccccc3n3ccnc23)c(Cl)c1 [Compound 144] | -26 |  |  | 
40 | Brc1ccc(-c2nc3ccccc3n3ccnc23)cc1 [Compound 146] |  | 0.11 | 3.1 | 
41 | Fc1ccc(-c2nc3ccccc3n3ccnc23)cc1 [Compound 147] | -39 | 0.027 | 1.7 | 
42 | N#Cc1ccc(-c2nc3ccccc3n3ccnc23)cc1 [Compound 149] |  | 0.16 | 8.8 | 

Row | SMILES | change in vivo at 100 mg/kg [1] [%] | ED50 [2] [mg/kg] | ED60 [3] [mg/kg] | also measured
43 | O=[N+]([O-])c1cccc(-c2nc3ccccc3n3ccnc23)c1 [Compound 150] | -30 | 22 | > 50 | 
44 | Brc1cccc(-c2nc3ccccc3n3ccnc23)c1 [Compound 157] |  | 0.39 | 12 | 
45 | Fc1cccc(-c2nc3ccccc3n3ccnc23)c1 [Compound 158] |  | 1 | 7.6 | 
46 | Oc1ccc(-c2nc3ccccc3n3ccnc23)cc1 [Compound 162] |  | 13 |  | 
47 | c1ccc(Nc2nc3ccccc3n3ccnc23)cc1 [Compound 170] |  | 6.6 | > 50 | 
48 | Cc1ccc(Nc2nc3ccccc3n3ccnc23)cc1 [Compound 171] |  | 0.96 | 59 | 
49 | Clc1ccc(Nc2nc3ccccc3n3ccnc23)cc1 [Compound 174] |  | 0.61 | 8 | 
50 | Clc1ccc(Nc2nc3ccccc3n3ccnc23)cc1Cl [Compound 175] |  | 0.09 | 5.9 | 
51 | Brc1ccccc1Nc1nc2ccccc2n2ccnc12 [Compound 177] |  | 13 | > 50 | 
52 | Brc1cccc(Nc2nc3ccccc3n3ccnc23)c1 [Compound 178] |  | 11 | 46 | 
53 | Fc1ccccc1Nc1nc2ccccc2n2ccnc12 [Compound 180] |  | 5.6 |  | 
54 | Fc1cccc(Nc2nc3ccccc3n3ccnc23)c1 [Compound 181] |  | 16 |  | 
55 | Brc1ccc(Nc2nc3ccccc3n3ccnc23)cc1 [Compound 183] |  | 0.39 | 15 | 
56 | Ic1ccc(-c2nc3ccccc3n3ccnc23)cc1 [Compound 196] |  | 0.42 | 45 | 
57 | Cc1ccccc1Nc1nc2ccccc2n2ccnc12 [Compound 197] |  | 1.6 | 37 | 
58 | CC(C)c1ccc(Nc2nc3ccccc3n3ccnc23)cc1 [Compound 218] |  | 1.5 | 25 | 
59 | c1ccc(Oc2ccc(-c3nc4ccccc4n4ccnc34)cc2)cc1 [Compound 219] |  | 2.5 | > 32 | 
60 | COc1ccc(Oc2ccc(-c3nc4ccccc4n4ccnc34)cc2)cc1 [Compound 220] |  | 2.3 | 11 | 
61 | CCCCSc1ccc(-c2nc3ccccc3n3ccnc23)cc1 [Compound 222] |  | 1 | > 32 | 
62 | COc1ccc2c(c1)c(CC(=O)O)c(C)n2C(=O)c1ccc(Cl)cc1 [Indomethacin, reference compound] | -65 |  |  | 
63 | CCCCC1C(=O)N(c2ccccc2)N(c2ccccc2)C1=O [phenylbutazone, reference compound] | -76 |  |  | 
